Source: patent publication US20160113960A1, “TOPICAL PREPARATIONS COMPRISING HYALURONIC ACID, VERBASCOSIDE AND GLYCEROPHOSPHOINOSITOL” (ALTERGON S.A., priority 2013, published 2016)

Assays:
[1] = titre of components in the muco-adhesive solution on storage at room temperature; assay type: physicochemical
[2] = spectrophotometric test with 2,2-diphenyl-1-picrylhydrazyl (DPPH), radical scavenging activity; assay type: biochemical; conditions: for radical scavenging activity (in words): DPPH test, summary of Tables 1 and 2
Procedure: Evidence of the radical scavenging activity of the main ingredients of the formulations prepared, VB, HANa, GPI, were obtained with in vitro tests.
The anti-radical activity of VB alone and in combination with HANa and GPI was analyzed by spectrophotometric test with 2,2-diphenyl-1-picrylhydrazyl (DPPH). The samples were prepared respecting the proportions provided in the formulation.

[3] = target: T1, iNOS (inducible nitric oxide synthase) (Homo sapiens, UniProt P35228); conditions: THP-1 cells stimulated with LPS and IFN-γ; cited from earlier work
T1 construct: human THP-1 leukemia cells stimulated with pro-inflammatory stimuli (e.g. LPS and IFN-γ) in which the activity of iNOS is overexpressed; endogenous in cells; host or cells: human THP-1 leukemia cells stimulated with LPS and IFN-γ

[4] = test system: periodontitis model; conditions: rats, cited from earlier work
[5] = test system: inflammatory chemokines such as GM-GCSF, IL-8, IP-10 and MCP-1; conditions: human keratinocytes stimulated with TNFα or IFN-γ; cited from earlier work
[6] = storage stability of verbascoside with and without water; assay type: physicochemical
Source text: Therefore, in a more preferred embodiment, the ternary association of the invention is formulated in dry form or with liquid or semi-solid anhydrous ingredients. If the final formulation requires one or more aqueous ingredients, verbascoside is preferably packaged separately in conditions of absence of water (or in the dry state or with semi-solid/liquid anhydrous ingredients) and stored in that form; a preferred semi-solid form is represented by glycerogel, or gelled semi-solid and non hydrated forms with a glycerin base; upon use, verbascoside is combined with the aqueous components, obtaining the final aqueous formulation, ready for administration. The separate packaging of the above ingredients is achievable by generally known means, e.g. double chamber bags, twin-bag double chamber dispensers, etc.

[7] = muco-adhesive solution of Example 6
[8] = muco-adhesive solution of Example 7, solution pH 4.4, viscosity 145 mPas s
[9] = muco-adhesive solution of Example 8, solution pH 4.4, viscosity 60 mPas s
[10] = muco-adhesive solution of Example 9, iota carrageenan solution, pH 4.3

Row | % titre at 30 days at room temperature [1, 7] [%] | Initial % titre [1, 7] [%] | % titre at 10 days at room temperature [1, 8] [%] | Initial % titre [1, 8] [%] | % titre at 10 days at room temperature [1, 9] [%] | Initial % titre [1, 9] [%] | % titre at 30 days at room temperature [1, 10] [%] | Initial % titre [1, 10] [%] | Compound | radical scavenging activity (in words) [2] | also measured
1 | 98.2 | 99.5 | 102.88 | 99.63 | 102.24 | 98.17 | 100.8 | 100.6 | O=P(O)(OC[C@H](O)CO)OC1[C@H](O)[C@H](O)C(O)[C@H](O)[C@H]1O (stereo partly drawn) [GPI, Inositol glycerophosphate] | essentially showed no activity | Radical scavenging activity (%) ([2]; concentration 78 mg/L): 1%
2 | 92.5 | 99.6 | 98.71 | 101.68 | 98.55 | 102.2 | 92.9 | 101.7 | C[C@@H]1O[C@@H](O[C@@H]2[C@@H](O)[C@H](OCCc3ccc(O)c(O)c3)O[C@H](CO)[C@H]2OC(=O)/C=C/c2ccc(O)c(O)c2)[C@H](O)[C@H](O)[C@H]1O [VB, Verbascoside] | clear | expression and activity of iNOS and superoxide radicals [3]: significant decrease; parameters of inflammation ([4]; oral administration 2 mg/kg/day for 8 days): significantly reduces; anti-inflammatory effect ([4]; periodontitis model): marked anti-inflammatory effect; time for which a high titre is maintained ([1]; after extemporaneous incorporation with the aqueous component, room temperature): at least 30 days; inflammatory chemokines such as GM-GCSF, IL-8, IP-10 and MCP-1 [5]: reduces in a dose-dependent manner; Radical scavenging activity (%) ([2]; VB concentration 3.3 μM (2.1 mg/L)): 15%; Radical scavenging activity (%) ([2]; VB concentration 6.6 μM (4.1 mg/L)): 24%; Radical scavenging activity (%) ([2]; VB concentration 13.2 μM (8.3 mg/L)): 42%; Radical scavenging activity (%) ([2]; VB concentration 26.5 μM (16.6 mg/L)): 76%; Radical scavenging activity (%) ([2]; VB concentration 53 μM (33.1 mg/L)): 95%; Radical scavenging activity (%) ([2]; concentration 15.6 mg/L): 74%; stability ([6]; in an aqueous medium): particularly labile; stability upon storage ([6]; stored in the absence of water): particularly stable
3 | 100.7 | 101.3 | 96.26 | 99.32 | 96.26 | 98.48 | 114.9 | 114.6 | Hyaluronic acid sodium salt [HANa] | essentially showed no activity | Radical scavenging activity (%) ([2]; concentration 62.4 mg/L): 1%
